Drawing on patent US20090099167A1, “Organic compounds” (Novartis Institutes for Biomedical Research, priority 2004, published 2009), this text covers IC50 for three molecules.

As usually defined, the IC50 is the concentration at which inhibition is half-maximal.

The target in this experiment is T1, c-Abl kinase (Homo sapiens, UniProt P00519).
T1 construct: The His-tagged kinase domain of c-Abl is cloned and expressed in the baculovirus/Sf9 system; His; made in house; host or cells: Sf9 (baculovirus)
T1 sequence (P00519 242-493 limits assumed): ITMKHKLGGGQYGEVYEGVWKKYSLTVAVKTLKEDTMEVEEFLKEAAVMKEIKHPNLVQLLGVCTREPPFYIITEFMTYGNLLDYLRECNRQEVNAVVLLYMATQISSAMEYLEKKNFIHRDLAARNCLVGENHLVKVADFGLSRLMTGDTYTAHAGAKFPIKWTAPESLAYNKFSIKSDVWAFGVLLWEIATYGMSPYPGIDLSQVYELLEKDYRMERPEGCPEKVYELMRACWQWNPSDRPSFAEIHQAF
Description: c-Abl protein-tyrosine kinase filter binding assay. As to conditions: Table 5; read-out: C-abl, IC50 class. Type of experiment: biochemical. In short, it runs like this:
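His-tagged c-Abl kinase domain (37 kD, Sf9-expressed) with 30 μg/mL poly-AEKY and [γ-33P]-ATP (5 μM ATP) in 20 mM Tris.HCl pH 7.5, 10 mM MgCl2, 10 μM Na3VO4, 1 mM DTT, 1% DMSO. EDTA-stopped reactions captured on PVDF membranes, washed with 0.5% H3PO4, and scintillation-counted.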

As to `Cc1nc2c(-c3cccc(N4CCC(N5CCCC5)CC4)c3)cnn2c(N)c1-c1ccc(F)cc1` [Example 103, 6-(4-Fluoro-phenyl)-5-methyl-3-[3-(4-pyrrolidin-1-yl-piperidin-1-yl)-phenyl]-pyrazolo[1,5-a]pyrimidin-7-ylamine], the 50% inhibitory concentration (IC50) was less than 1000 nM. Take `Cc1nc2c(-c3cccc(N4CC[N+](C)([O-])CC4)c3)cnn2c(N)c1-c1ccc(F)cc1` [Example 106, 6-(4-Fluoro-phenyl)-5-methyl-3-[3-(4-methyl-4-oxy-piperazin-1-yl)-phenyl]-pyrazolo[1,5-a]pyrimidin-7-ylamine]: the half-inhibitory concentration (IC50) is less than 1000 nM. Under `Cc1nc2c(-c3cccc([N+]4([O-])CC[N+](C)([O-])CC4)c3)cnn2c(N)c1-c1ccc(F)cc1` (stereo not drawn) [Example 107, 6-(4-Fluoro-phenyl)-5-methyl-3-[3-(4-methyl-1,4-dioxy-piperazin-1-yl)-phenyl]-pyrazolo[1,5-a]pyrimidin-7-ylamine] stands less than 1000 nM.
